Results taken from US20230398087A1, “APPLICATION OF BZP IN TREATMENT OF ISCHEMIC CARDIOVASCULAR AND CEREBRAL VASCULAR DISEASES” (priority 2020, published 2023).
“Also recorded” adds a separate entry of the source.

Key:
MCAO model rats = test: Focal cerebral ischemia-reperfusion injury in rats (MCAO model); format: in vivo
Protocol: BZP has a protective effect on cerebral ischemia-reperfusion injury and is effective when administered within 4 hours after ischemia, especially within 2 hours after ischemia.
In the follow-up test, the drug was administered at 2 h of ischemia.
BZP can improve motor dysfunction, reduce the volume of cerebral infarction, and reduce cerebral edema. The optimal treatment time window is within 4 hours after ischemia, especially within 2 hours after ischemia.

salt-sensitive rats = test: Salt-sensitive rats; format: in vivo
cardiovascular system = test: Safety pharmacology, cardiovascular system; format: in vivo, dogs
Protocol: These changes all recovered within 0.5 hours after administration. The dose range of […] BZP has no effect on the II-lead ECG.

[1] = Pharmacokinetics after intravenous injection in dogs; format: in vivo
[2] = Phase I safety and tolerability in healthy subjects (BZP1601 single dose, BZP1702 multiple doses); format: in vivo, human
Excerpt: Analysis population: same as BZP1601 trial. All 36 subjects enrolled were included in the safety analysis data set, 30 subjects in the BZP group and 6 subjects in the placebo group.
The AE related to the study drug occurred from a few minutes to the 9th day after administration, and the symptoms turned to disappear without any clinical intervention.

[3] = system: acute ischemic stroke patients; test: BZP1703 Phase II clinical trial in acute ischemic stroke; format: in vivo, human; conditions: preliminary results
Excerpt: The BZP1703 clinical trial is a multi-center, randomized, double-blind, placebo-controlled Phase II clinical trial. The purpose of the trial is to evaluate the safety and feasibility of different doses of BZP for injection compared with placebo in the treatment of acute ischemic stroke, and to preliminarily explore its effectiveness, so as to provide a basis for the design of Phase III clinical trial.
The trial plans to enroll 375 acute ischemic stroke patients aged 45 to 75 in China. […]
The primary safety endpoint of the BZP1703 trial is SAE, and the primary efficacy endpoint is the difference between the NIHSS score on day 14 and the baseline NIHSS score. Secondary safety endpoints include all-cause death, fatal bleeding and symptomatic intracranial hemorrhage, hemorrhagic transformation of cerebral infarction detected by head magnetic resonance imaging (MRI) on day 14, various adverse events; other bleeding events, AE, AEs of special interest (seizures, bradycardia, atrioventricular block, coagulation abnormalities, proteinuria, leukopenia), number and incidence of patients with new vascular events (ischemic stroke/hemorrhagic stroke/myocardial infarction/vascular death), vital signs, physical examination, laboratory tests (blood routine, blood biochemistry, urine routine, stool routine, coagulation function, etc.), 12-lead electrocardiogram (ECG) and other abnormalities. […]

[4] = BZP 3, 12 and 24 mg/kg, compared with the model group
[5] = BZP 3, 12 and 24 mg/kg, dose-dependent

SMILES: CCCCC(O)c1ccc(Br)cc1C(=O)[O-].[Na+] (stereo not drawn) [BZP, sodium 5-bromo-2-(α-hydroxypentyl)benzoate]
- volume of cortical infarction (MCAO model rats; 0.75 mg/kg (P<0.01)): significantly reduce the volume of cortex
- effect on volume of cerebral infarction compared with Br-NBP group (MCAO model rats; 3 mg/kg of BZP (P<0.01)): better than that of Br-NBP group
- muscle strength and balance beam behavior (MCAO model rats; 12 mg/kg): significantly restore
- proportion of necrotic neurons and apoptosis rate (MCAO model rats; 12 mg/kg): reduce the proportion of necrotic neurons and apoptosis rate
- effect of administration at 0.5 h and 2 h compared with 4 h after ischemia (MCAO model rats; 12 mg/kg (P<0.01)): better than that of 4 h
- volume of cerebral infarction, treatment time window (MCAO model rats; 12 mg/kg at 0.5 h, 2 h or 4 h after ischemia, compared with the model group): significantly reduce
- improved effects compared with NBPK group (MCAO model rats; 12 mg/kg, muscle strength, balance beam, necrotic neurons, apoptosis rate): significantly better than those of NBPK group
- volumes of cerebral infarction (MCAO model rats; 0.75, 3, 12 and 24 mg/kg, compared with the model group (P<0.01)): significantly reduced
- neurobehavioral scores (MCAO model rats; 3, 12 and 24 mg/kg, at 2.5 h and 6 h, compared with the model group (P<0.05, P<0.01)): significantly lower
- volumes of brain edema (MCAO model rats; 3, 12 and 24 mg/kg, compared with the model group (P<0.01)): significantly reduced
- volumes of striatal and cortical infarction (MCAO model rats; 3 and 12 mg/kg (P<0.01)): significantly reduced the volumes of striatal and cortical infarction
- effect on volume of cerebral infarction compared with NBP-K and Br-NBP groups (MCAO model rats; 12 and 24 mg/kg of BZP (P<0.01)): better than those of NBP-K and Br-NBP groups
- effect on brain edema compared with NBP-K group and Br-NBP group (MCAO model rats; 24 and 12 mg/kg of BZP (P<0.01)): better than those of NBP-K group and Br-NBP group
- brain swelling (MCAO model rats; [4]): significantly reduce
- volume of cerebral infarction (MCAO model rats; [4]): significantly reduce
- neurobehavior of MCAO model rats (MCAO model rats; [5]): improve the neurobehavior
- treatment time window: time of administration after ischemia at which effective (MCAO model rats; especially within 2 hours after ischemia): ≤ 4 h
- effective dose to protect against ischemia-reperfusion injury in rats (MCAO model rats; rat, in vivo): 12 mg/kg
- blood pressure of salt-sensitive rats (salt-sensitive rats; 12 mg/kg, 21 days after administration): significantly reduce the blood pressure
- neurobehavior of salt-sensitive rats (salt-sensitive rats; [5]): improve the neurobehavior
- time to recovery of blood pressure changes after administration (cardiovascular system; 50 mg/kg intravenous): ≤ 0.5 h
- systolic blood pressure, diastolic blood pressure and mean arterial pressure (cardiovascular system; 0.25 hours after intravenous injection of 50 mg/kg): small transient increase
- effect on the II-lead ECG (cardiovascular system; dose range of 5-50 mg): no effect
- Cmax and AUC0-t, first compared with last administration ([1]; 7 consecutive days, 2.0 mg/kg, dogs): no statistically significant differences
- accumulation in the body ([1]; intravenous, 7 consecutive days, 2.0 mg/kg, dogs): did not accumulate
- difference between male and female dogs ([1]; single intravenous injection): no significant difference
- Cmax and AUC0-t versus dose ([1]; single intravenous injection of BZP 1.0-4.0 mg/kg, dogs): basically conformed to linear kinetics
- incidence of AE with dose increase ([2]; both Phase I trials): does not increase with the dose increase; also recorded: did not increase with dose increase
- overall safety and tolerability in healthy subjects ([2]; both Phase I trials): safe and well tolerated
- proportion of AE, BZP groups compared with the placebo group ([2]; both Phase I trials): no statistical difference
- death, SAE, AE leading to drop out, other important AE ([2]; both clinical trials): no death, SAE, AE leading to drop out, or other important AE
- dose-limiting toxicity (DLT) ([2]; both clinical trials): No dose-limiting toxicity (DLT) occurred
- AE of more than mild severity ([2]; multiple dose trial, 100 mg group, AE of others mild): one case of moderate hypotension
- AE judged by the investigator to be related to study drug, multiple doses ([2]; multiple doses, dose group per AE): administration site pain; also recorded: hypotension; also recorded: hypokalemia; also recorded: decreased diastolic blood pressure
- safety and tolerance ([2]; multiple intravenous infusions, 50 to 200 mg): good safety and tolerance
- AE judged by the investigator to be related to study drug, single dose ([2]; single dose, dose group per AE): coagulopathy; also recorded: mild bradycardia; also recorded: decreased white blood cell counts; also recorded: decreased neutrophil cell count/percentage; also recorded: first-degree atrioventricular block; also recorded: proteinuria
- safety and tolerance ([2]; single intravenous infusion, 25-400 mg): good safety and tolerance
- effectiveness, single dose of 200 mg compared with 100 mg ([3]; acute ischemic stroke patients): significantly more effective than a single dose of 100 mg
- effectiveness, 200 mg twice daily compared with 100 mg twice daily ([3]; intravenous infusion for 14 days): significantly more effective than the dosage regimen of a single dose of 100 mg twice daily
